From patent publication US10966999B2, “3′3′ cyclic dinucleotides with phosphonate bond activating the sting adaptor protein” (INSTITUTE OF ORGANIC CHEMISTRY AND BIOCHEMISTRY ASCR, V.V.I., priority 2017, dated 2021)

Columns and labels:
AQ STING (G230A-R293Q) = molecular target: T1, AQ STING (G230A-R293Q) (Homo sapiens, UniProt Q86WV6, G230A/H232R/R293Q); test: Differential Scanning Fluorimetry (DSF) with AQ STING; assay type: binding; conditions: thermal shift vs STING apoprotein; 150 μM CDN; 0.1 mg/ml protein; SYPRO Orange
T1 construct: encoded truncated human WT STING or AQ STING (amino acid residues 140-343) with N-terminal 8×His and SUMO tag; 8xHis-SUMO (N, cleaved yes); made in house; host or cells: E. coli Rosetta-gami B (DE3)
T1 sequence (Q86WV6 140-343 G230A/H232R/R293Q): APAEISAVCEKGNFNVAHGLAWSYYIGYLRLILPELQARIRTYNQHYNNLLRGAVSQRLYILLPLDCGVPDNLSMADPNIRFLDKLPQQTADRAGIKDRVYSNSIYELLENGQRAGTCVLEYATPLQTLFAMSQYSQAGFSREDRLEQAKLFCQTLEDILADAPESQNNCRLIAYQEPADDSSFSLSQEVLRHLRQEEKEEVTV
Protocol: (§1) WT STING and AQ STING Proteins
(§2) Purified PCR products were cleaved with restriction enzymes BamHI (cat. #R0136S, NEB, Ipswich, USA) and NotI (cat. #R0189S, NEB, Ipswich, USA) and cloned into the pSUMO vector linearized with the identical enzymes.
(§3) DNase I (cat. #D5025, Sigma Aldrich, Czech Republic) and RNase A (cat. #R6513, Sigma Aldrich, Czech Republic) were added (final concentration 50 μg/ml) together with MgCl2 (final concentration 5 mmol·l^−1) to the homogenate and bacteria were lysed using French Press G-M™ High-Pressure Cell Press Homogenizer (1500 psi, 3 cycles). […] The resin was poured into a chromatography column, washed with 50 ml buffer A (50 mmol·l^−1 TrisCl (pH 8.0), 800 mmol·l^−1 NaCl, 3 mmol·l^−1 3-mercaptol; 10% glycerol; 20 mmol·l^−1 imidazole) and 8-His-SUMO tagged STING proteins were eluted with 15 ml buffer A containing 300 mmol·l^−1 imidazole. […] Proteins were concentrated with Amicon® Ultra-15 10 K device (cat. #UFC901008, Merck Millipore, Billerica, USA) and flash frozen in liquid N2.
(§4) Differential Scanning Fluorimetry (DSF) with WT STING and AQ STING
(§5) 20 μL solutions of the reaction mixtures were pipetted in triplicates into 96 well optical reaction plates and thermal denaturation of samples were performed on real time PCR cycler (LightCycler R 480 Instrument II—Roche, Basel, Switzerland). The first derivative of the thermal denaturation curves was performed to calculate denaturing temperatures of STING-CDN complexes and STING apoproteins. The thermal shift for each CDN was calculated by subtracting the average denaturing temperature of STING apoprotein from the average denaturing temperature of STING CDN complex.

WT STING = molecular target: T2, WT STING (Homo sapiens, UniProt Q86WV6, H232R); test: Differential Scanning Fluorimetry (DSF) with WT STING; assay type: binding; conditions: thermal shift vs STING apoprotein; 150 μM CDN; 0.1 mg/ml protein; SYPRO Orange
T2 construct: encoded truncated human WT STING or AQ STING (amino acid residues 140-343) with N-terminal 8×His and SUMO tag; 8xHis-SUMO (N, cleaved yes); made in house; host or cells: E. coli Rosetta-gami B (DE3)
T2 sequence (Q86WV6 140-343 H232R): as the sequence (Q86WV6 140-343 G230A/H232R/R293Q) above, with A91G, Q154R counted along it
Protocol: as §1, §2, §3, §4, §5

[1] = molecular target: T3, human wild type STING (WT STING) (Homo sapiens, UniProt Q86WV6, H232R); test: Digitonin assay using 293T wtSTING-FL reporter cells; assay type: cell-based; conditions: 293T wtSTING-FL cells; ISRE firefly luciferase reporter; 30 min in Digitonin buffer, then 5 hours; 8-point dose-response curve
T3 construct: host or cells: 293T (ATCC CRL-3216), stably transfected, with a 4xISRE firefly luciferase reporter
T3 sequence (Q86WV6 whole entry H232R): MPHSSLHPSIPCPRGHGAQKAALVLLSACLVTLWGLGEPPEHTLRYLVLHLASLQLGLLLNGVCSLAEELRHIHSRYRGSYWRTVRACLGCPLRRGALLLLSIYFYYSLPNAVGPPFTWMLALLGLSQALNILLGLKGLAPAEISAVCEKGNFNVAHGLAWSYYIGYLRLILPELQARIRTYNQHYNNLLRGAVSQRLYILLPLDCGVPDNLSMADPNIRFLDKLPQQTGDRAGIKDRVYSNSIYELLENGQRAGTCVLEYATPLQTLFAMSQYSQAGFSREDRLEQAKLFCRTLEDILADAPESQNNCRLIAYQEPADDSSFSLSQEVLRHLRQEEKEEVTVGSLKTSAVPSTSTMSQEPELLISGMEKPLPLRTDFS
Source text: ISRE Reporter Plasmid (pGL64.27-4×ISRE)
Two complementary oligonucleotides of the sequence […] […] […] […] […] The oligonucleotides were mixed in equal molar amounts, hybridized, and cleaved by restriction endonucleases HindIII (cat. #. R0104S, NEB, Ipswich, USA) and BglII (cat. #R0144S, NEB, Ipswich, USA). Ultimately, they were ligated into plasmid pGL4.27 (cat. #E6651, Promega, Madison, USA) linearized with the same enzymes. As result the sequence with four ISRE sites was placed upstream of the minimum promoter of firefly luciferase reporter gene.
After 5 minutes incubation at room temperature (RT), 250 μL of the mixture was added dropwise to the cells in one well. Cells were incubated 36 hours at 37° C. with 5% CO2, and then detached with 0.05% Trypsin and 0.22 g/L EDTA (both cat. #L0941, Biowest, Riverside, USA).
Transfected cells were seeded onto poly-D-lysine coated six well plates at density 50,000 cells per 1 cm^2 in DMEM medium with high glucose containing 10% heat inactivated FBS, 30 μg/mL blasticidin (cat. #ant-bl-05, InvivoGen, San Diego, USA), 0.06 mg/ml Penicillin G and 0.1 mg/ml Streptomycin Sulfate (both cat. #. L0018, Biowest, Riverside, USA). The medium was replenished every 3-4 days until visible colonies of cells resistant to blasticidin were formed.
Blasticidin resistant cells stably expressing WT STING were further transfected with pGL64.27-4×ISRE plasmid following the same procedure as described above. […] Homogeneous culture of stably double transfected cells was prepared by limiting dilution of cells in 96 well plates and wells with cells were selected that originated from a single cell.
The medium was removed next day and three fold serial dilutions of compounds in Digitonin buffer containing 50 mmol·l^−1 HEPES (cat. #H3375, Sigma Aldrich, Czech Republic) pH 7.0, 100 mmol·l^−1 KCl, 3 mmol·l^−1 MgCl2, 0.1 mmol·l^−1 DTT (cat. #D0632, Sigma Aldrich, Czech Republic), 85 mmol·l^−1 Sucrose (cat. #S7903, Sigma Aldrich, Czech Republic), 0.2% BSA (cat. #A2153, Sigma Aldrich, Czech Republic), 1 mmol·l^−1 ATP (cat. #A1852, Sigma Aldrich, Czech Republic), 0.1 mmol·l^−1 GTP (cat. #G8877, Sigma Aldrich, Czech Republic), and 10 μg/mL Digitonin A (cat. #D141, Sigma Aldrich, Czech Republic) were added to the cells. The buffer was removed after 30 minutes incubation at 37° C. with 5% CO2, the cells were washed once with 100 μl of cultivation medium, and 100 μl of medium was added to each well. The plates with cells were incubated for 5 hours at 37° C. with 5% CO2, 50 μl of the medium was removed and 30 μl of ONE-Glo™ Luciferase Assay System reagent (cat. #E6120, Promega, Madison, USA) was added to each well. Luminescence was read on Synergy H1 (Biotek, Winooski, USA).

Compound	DSF ΔTm AQ STING (AQ STING (G230A-R293Q))	DSF ΔTm WT STING (WT STING)	EC50 [1]	ΔTm at 150 µM (AQ STING (G230A-R293Q))	ΔTm at 150 µM (WT STING)
(2R,3R,3aS,7aR,9R,10R,10aR,14aR)-2,9-bis(6-amino-9H-purin-9-yl)-10-fluoro-3,5,12-trihydroxydecahydrodifuro[3,2-d:3′,2′-i][1,3,6,9]tetraoxa[2,8]diphosphacyclododecine 5,12-dioxide [Compound 33]	12.0 °C	5.7 °C	110 nM		
Nc1nc2c(ncn2[C@@H]2O[C@@H]3COP(=O)(O)O[C@H]4[C@@H](O)[C@H](n5cnc6c(=O)[nH]c(N)nc65)O[C@@H]4COP(=O)(O)O[C@H]3[C@H]2O)c(=O)[nH]1 [3′3′c-di-GMP, 3′3′-c-di-GMP, reference compound]	7.7 °C	2.6 °C	5800 nM		
Nc1ncnc2c1ccn2[C@@H]1O[C@@H]2COP(=O)(O)OC3C(O)[C@H](n4cnc5c(N)ncnc54)O[C@@H]3OCP(=O)(O)OC2C1O (stereo partly drawn) [Compound 50]			8600 nM	2 °C	0.4 °C
Nc1ncnc2c1ncn2[C@@H]1O[C@@H]2OCP(=O)(O)OC3C(O)[C@H](n4cnc5c(N)ncnc54)O[C@@H]3COP(=O)(O)OC2C1O (single isomer, unassigned) [Compound 32]			1200 nM	6.4 °C	0.8 °C
Nc1nc2c(ncn2[C@@H]2O[C@@H]3COP(=O)(O)O[C@@H]4[C@H](O)[C@@H](COP(=O)(O)O[C@@H]2[C@@H]3O)O[C@H]4n2cnc3c(N)ncnc32)c(=O)[nH]1 [2′2′-cGAMP, reference compound]	19.4 °C	11.5 °C	30 nM		
CSc1nc(N)nc2c1ncn2[C@@H]1O[C@@H]2COP(=O)(O)OC3C(O)[C@H](n4cnc5c(N)ncnc54)O[C@@H]3OCP(=O)(O)OC2C1O (stereo partly drawn) [Compound 45]			20800 nM	1.1 °C	0 °C
Nc1nc2c(ncn2[C@@H]2O[C@@H]3COCP(=O)(O)OC4C(F)[C@H](n5cnc6c(N)ncnc65)O[C@@H]4COP(=O)(O)OC3C2O)c(=O)[nH]1 (stereo partly drawn) [Compound 35, 2-amino-9-((2R,3R,3aS,7aR,9R,10R,10aR,15aR)-9-(6-amino-9H-purin-9-yl)-10-fluoro-3,5,12-trihydroxy-5,12-dioxidodecahydro-2H-difuro[2,3-e:2′,3′-l][1,3,7,10]tetraoxa[2,8]diphosphacyclotridecin-2-yl)-1,9-dihydro-6H-purin-6-one]			2400 nM	9 °C	2.3 °C
Nc1nc2c(ncn2[C@@H]2O[C@@H]3OCP(=O)(O)OC4C(O)[C@H](n5cnc6c(N)ncnc65)O[C@@H]4COP(=O)(O)OC3C2O)c(=O)[nH]1 (stereo partly drawn) [Compound 37]			5 nM	15.9 °C	7.6 °C
Nc1nc2c(ccn2[C@@H]2O[C@@H]3COP(=O)(O)OC4C(O)[C@H](n5cnc6c(N)ncnc65)O[C@@H]4OCP(=O)(O)OC3C2O)c(=O)[nH]1 (stereo partly drawn) [Compound 43]			4700 nM	3.3 °C	0.6 °C
Nc1nc2c(ncn2[C@@H]2O[C@@H]3OCP(=O)(O)OC4C(O)[C@H](n5cnc6c(N)ncnc65)O[C@@H]4OCP(=O)(O)OC3C2O)c(=O)[nH]1 (stereo partly drawn) [Compound 38]			200 nM	9.5 °C	1.9 °C
COc1nc(N)nc2c1ncn2[C@@H]1O[C@@H]2COP(=O)(O)OC3C(O)[C@H](n4cnc5c(N)ncnc54)O[C@@H]3OCP(=O)(O)OC2C1O (stereo partly drawn) [Compound 41]			17600 nM	1.6 °C	0.1 °C
Nc1ncc2ncn([C@@H]3O[C@@H]4COP(=O)(O)OC5C(O)[C@H](n6cnc7c(N)ncnc76)O[C@@H]5OCP(=O)(O)OC4C3O)c2n1 (stereo partly drawn) [Compound 42]			600 nM	6.6 °C	0.7 °C
Nc1ncnc2c1ncn2[C@@H]1O[C@@H]2COCP(=O)(O)OC3C(F)[C@H](n4cnc5c(N)ncnc54)O[C@@H]3COP(=O)(O)OC2C1O (stereo partly drawn) [Compound 34, (2R,3R,3aS,7aR,9R,10R,10aR,15aR)-2,9-bis(6-amino-9H-purin-9-yl)-10-fluoro-3,5,12-trihydroxydecahydro-2H-difuro[2,3-e:2′,3′-1][1,3,7,10]tetraoxa[2,8]diphosphacyclotridecine 5,12-dioxide]			19600 nM	4.3 °C	0.2 °C
Nc1ncnc2c1ncn2[C@@H]1O[C@@H]2OCP(=O)(O)OC3C(O)[C@H](n4cnc5c(N)ncnc54)O[C@@H]3OCP(=O)(O)OC2C1O (stereo partly drawn) [Compound 31, (2R,3R,3aS,7aR,9R,10R,10aS,14aR)-2,9-bis(6-amino-9H-purin-9-yl)-3,5,10,12-tetrahydroxydecahydrodifuro[2,3-e:2′,3′-k][1,4,7,10]tetraoxa[2,8]diphosphacyclododecine 5,12-dioxide]			19200 nM	2.5 °C	0.1 °C
Nc1nc2c(ncn2[C@@H]2O[C@@H]3OCP(=O)(O)OC4C(O)[C@H](n5cnc6c(=O)[nH]c(N)nc65)O[C@@H]4OCP(=O)(O)OC3C2O)c(=O)[nH]1 (stereo partly drawn) [Compound 36]			8100 nM	5.6 °C	0.6 °C
Nc1ncnc2c1ncn2[C@@H]1O[C@@H]2COP(=O)(O)O[C@H]3[C@@H](O)[C@H](n4cnc5c(N)ncnc54)O[C@@H]3COP(=O)(O)O[C@H]2[C@H]1O [3′3′c-di-AMP, 3′3′-c-di-AMP, reference compound]	9.3 °C	2.6 °C	300 nM		
Nc1nc2c(ncn2[C@@H]2O[C@@H]3COP(=O)(O)OC4C(O)[C@H](n5cnc6c(N)ncnc65)O[C@@H]4OCP(=O)(O)OC3C2O)c(=O)[nH]1 (stereo partly drawn) [Compound 44]			90 nM	11.2 °C	4.5 °C
CNc1ncnc2c1ncn2[C@@H]1O[C@@H]2COP(=O)(O)OC3C(O)[C@H](n4cnc5c(N)ncnc54)O[C@@H]3OCP(=O)(O)OC2C1O (stereo partly drawn) [Compound 48]			1500 nM	4.4 °C	0.6 °C
Nc1ncnc2c1ncn2[C@@H]1O[C@@H]2OCP(=O)(O)OC3C(O)[C@H](n4cnc5c(N)ncnc54)O[C@@H]3COP(=O)(S)OC2C1O (stereo partly drawn) [Compound 49]			1500 nM	4.2 °C	0.5 °C
Nc1ncnc2c1ncn2[C@@H]1O[C@@H]2OCP(=O)(O)OC3C(F)[C@H](n4cnc5c(N)nc(F)nc54)O[C@@H]3COP(=O)(O)OC2C1O (stereo partly drawn) [Compound 53]			900 nM	8.8 °C	3 °C
